Results published in patent publication US10209240B2, “Predicting human developmental toxicity of pharmaceuticals using human stem-like cells and metabolomic ratios” (STEMINA BIOMARKER DISCOVERY, INC., priority 2012, dated 2019).
Like-named read-outs stand apart in the source and are kept apart here.

Tests used:
[1] = therapeutic peak plasma in vivo concentration, human, cited from earlier work
[2] = system: rat whole embryo; conditions: training and test set; weak/moderate and strong teratogens both labeled teratogen; cited from earlier work
[3] = system: zebrafish; conditions: training and test set; weak/moderate and strong teratogens both labeled teratogen; cited from earlier work
[4] = system: WA09 hES cells
[5] = system: hES cells; assay: devTOX computational model predictions (Version 2.0, Version 2.1) from hES cell metabolomics; type: cell-based, human; conditions: single dose per treatment (Dose column)
Text: The selection process weighted the predictive capacity of a feature, overall intensity, and peak shape to identify very well behaved features/metabolites that could be measured by targeted LC-MS or even by other detection systems.
This simplified model is based on a ratio of the reference treatment (DMSO) normalized values of ADMA and cystine.

[6] = system: Rabbit; conditions: training and test set; cited from earlier work
[7] = system: Humans; conditions: cited from earlier work; for Humans (known human developmental toxicity): training and test set; for Known Effect: validation and test set treatments of Example 2
[8] = system: WA09 hES cells; assay: Phase 2 targeted biomarker assay, ornithine/cystine ratio, 9-point dose response
In short: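 WA09 hES cells (≤ passage 40), plated as single cells at 100,000/well on Matrigel in mTeSR1 with 10 μM Y27632, dosed 24 h later with nine 3-fold dilutions, 0.04–300 μM, 0.1% DMSO, for 72 h. Final-24 h spent medium, spiked with 13C6-arginine and filtered (<10 kDa), analysed by LC-HRMS; viability by CellTiter-Fluor.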

[9] = system: Rodent; conditions: training and test set; cited from earlier work
[10] = system: mouse embryonic stem cell; conditions: training and test set; weak/moderate and strong teratogens both labeled teratogen; cited from earlier work
[11] = summarized from TERIS and Briggs et al. 2011, cited from earlier work
[12] = system: hES cells; assay: ADMA/cystine ratio simplified predictive model in hES cell spent media; type: cell-based, human; conditions: single dose per treatment; ratios less than 0.9 indicate teratogenicity
In short: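 hES cell spent media were analysed for ADMA and cystine, each normalized to the DMSO reference, and their ratio formed. Each value is the median of independent blocks (6 reps each). A ratio cutoff of 0.9 classifies teratogens versus non-teratogens.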

[13] = system: rat; conditions: cited from earlier work
[14] = Solubility in DMSO for stock solutions
Experimental: Phase I hES Cell Compound Exposure. hES cells were treated with a test compound at a single concentration equivalent to the compound's published therapeutic Cmax. […] This was done to ensure that enough cells were present at the time of sample collection to provide a signal for LC-HRMS analysis. For test compound exposure, all compound stock solutions, with the exception of valproic acid, were made with DMSO (Sigma-Aldrich). […] Each 96-well plate included media controls with and without test compound, 0.1% DMSO solvent control cells and cells exposed to a single concentration of eight different test compounds (FIG. 1A). Media controls were included on each plate to assess the impact of test compound on the sample matrix. hES cells were exposed to the test compound for 72 hours, with media and test compound replacement every 24 hours. Cells were monitored throughout the treatment period to ensure that no differentiation was occurring. After 72 hours of treatment, the spent media from the final 24-hour treatment period was collected and added to acetonitrile (Sigma-Aldrich, final acetonitrile concentration 40%), to halt metabolic processes and precipitate proteins from solution. Individual wells from each 96-well plate were collected and analyzed as separate samples. These samples were then stored at −80° C. until prepared for LC-HRMS analysis. Cell viability was assessed using the CellTiter-Fluor Cell Viability Assay as per the manufacturer's instructions (Promega, Madison, Wis.). […]
Phase 2 hES Cell Compound Exposure. […] Cell viability was assessed using the CellTiter-Fluor Cell Viability Assay. A quality control step was included with criteria that the CV of the measured viability RFU of the DMSO control cells could not exceed 10% for a plate to undergo LC-HRMS analysis. […]

[15] = training set, teratogenicity potential scored against therapeutic Cmax

NNC(=O)c1ccncc1 [Isoniazid]
Cmax ([1]; training set): 51 µM
WEC prediction [2]: TER^f,j
ZET prediction [3]: NON^c,n
Viability Prediction [4]: NON
Teratogenicity Potential (μM) Cell Viability ([4]; human, 72 h): >300 µM
Model Predictions Version 2.0 [5]: Ter
Model Predictions Version 2.1 [5]: Ter
Rabbit prediction [6]: NON
Humans (known human developmental toxicity) [7]: NON
Known Effect [7]: Non
O/C Ratio Prediction [8]: NON
Targeted Biomarker Assay prediction [8]: NON
Teratogenicity Potential (μM) O/C Ratio ([8]; human, 72 h): 165.4 µM
Rodent prediction [9]: NON
mEST prediction [10]: NON^b,i
Preclinical in vivo and known human developmental effects ([11]; training set compounds): None
Model Predictions ADMA/Cystine [12]: Non

CS(=O)(=O)CCNCc1ccc(-c2ccc3ncnc(Nc4ccc(OCc5cccc(F)c5)c(Cl)c4)c3c2)o1 [Lapatinib]
Exposure level causing rat pup mortality relative to human clinical exposure based on AUC ([13]; given during organogenesis, Briggs et al. 2011): about 3.3 times
Cmax ([1]; test set): 4.2 µM
Viability Prediction [4]: NON
Teratogenicity Potential (μM) Cell Viability ([4]; human, 72 h): 20.8 µM
Rabbit prediction [6]: TER
Humans (known human developmental toxicity) [7]: TER
O/C Ratio Prediction [8]: NON
Targeted Biomarker Assay prediction [8]: NON
Teratogenicity Potential (μM) O/C Ratio ([8]; human, 72 h): 29 µM
Rodent prediction [9]: TER
Preclinical in vivo and known human developmental effects ([11]; test set compounds): Skeletal, embryo toxicity^c

CC1(C)S[C@@H]2[C@H](NC(=O)Cc3ccccc3)C(=O)N2[C@H]1C(=O)O [Penicillin G]
Cmax ([1]; training set): 135 µM
WEC prediction [2]: NON^f,j
ZET prediction [3]: NON^c,e,n
Teratogenicity Potential (μM) Cell Viability ([4]; training set, interpolated concentration where cell viability dose response curve crosses teratogenicity threshold 0.88, 72 hours): >300 µM
Viability Prediction [4, 15]: NON
Model Predictions Version 2.0 [5]: Non
Model Predictions Version 2.1 [5]: Non
Rabbit prediction [6]: NON
Humans (known human developmental toxicity) [7]: NON
Known Effect [7]: Non
Targeted Biomarker Assay prediction ([8]; training and test set, o/c ratio scored against therapeutic Cmax): NON
Teratogenicity Potential (μM) O/C Ratio ([8]; training set, interpolated concentration where o/c ratio dose response curve crosses teratogenicity threshold 0.88, 72 hours): >300 µM
O/C Ratio Prediction [8, 15]: NON
Rodent prediction [9]: NON
mEST prediction [10]: NON^b,i
Preclinical in vivo and known human developmental effects ([11]; training set compounds): None
Model Predictions ADMA/Cystine [12]: Non

Nc1nc2ncc(CNc3ccc(C(=O)N[C@@H](CCC(=O)O)C(=O)O)cc3)nc2c(=O)[nH]1 [Folic Acid]
Solubility in DMSO (words) [14]: completely insoluble in DMSO
Cmax ([1]; training set): 0.035 µM
Viability Prediction [4]: NON
Teratogenicity Potential (μM) Cell Viability ([4]; human, 72 h): >300 µM
Model Predictions Version 2.0 [5]: Ter
Model Predictions Version 2.1 [5]: Non
Humans (known human developmental toxicity) [7]: NON
Targeted Biomarker Assay prediction [8]: NON
Model Predictions ADMA/Cystine [12]: Non

CCCC(CCC)C(=O)O [Valproic Acid]
Solubility in DMSO (words) ([14]; at the stock concentrations used in this study, listed as Valproic acid): insoluble in DMSO
Solubility in DMSO (words) ([14]; at the stock concentrations used in this study, listed as valproic acid): completely insoluble in DMSO
Cmax ([1]; training set): 1000 µM
WEC prediction [2]: TER^f,j
ZET prediction [3]: TER^e,n
Viability Prediction [4]: NON
Teratogenicity Potential (μM) Cell Viability ([4]; human, 72 h): 1113.7 µM
Model Predictions Version 2.0 [5]: Ter
Model Predictions Version 2.1 [5]: Ter
Rabbit prediction [6]: TER^u
Humans (known human developmental toxicity) [7]: TER
Known Effect [7]: Ter
Change in the o/c ratio, also relative to cytotoxicity [8]: marked change in the o/c ratio at exposure levels well before cytotoxicity is observed
O/C Ratio Prediction [8]: TER
Targeted Biomarker Assay prediction [8]: TER
Teratogenicity Potential (μM) O/C Ratio ([8]; human, 72 h): 90.8 µM
Rodent prediction [9]: TER
mEST prediction [10]: TER^b,i
Preclinical in vivo and known human developmental effects ([11]; training set compounds): Central nervous system,
Model Predictions ADMA/Cystine [12]: Ter

CCN(CC)CCNC(=O)c1cc(Cl)c(N)cc1OC [Metoclopramide]
Cmax ([1]; test set): 0.15 µM
WEC prediction [2]: NON^f,j
ZET prediction [3]: NON^d
Viability Prediction [4]: NON
Teratogenicity Potential (μM) Cell Viability ([4]; human, 72 h): >300 µM
Model Predictions Version 2.0 [5]: Ter
Model Predictions Version 2.1 [5]: Non
Rabbit prediction [6]: NON
Humans (known human developmental toxicity) [7]: NON
Known Effect [7]: Non
O/C Ratio Prediction [8]: NON
Targeted Biomarker Assay prediction [8]: NON
Teratogenicity Potential (μM) O/C Ratio ([8]; human, 72 h): 190.8 µM
Rodent prediction [9]: NON
mEST prediction [10]: TER^i,m
Preclinical in vivo and known human developmental effects ([11]; test set compounds): None
Model Predictions ADMA/Cystine [12]: Non

CC[C@H](C)C(=O)O[C@H]1C[C@@H](C)C=C2C=C[C@H](C)[C@H](CC[C@@H]3C[C@@H](O)CC(=O)O3)[C@H]21 [Lovastatin]
Cmax ([13]; in vivo, 100 mg/kg/day): ~1.5 µM
lowest observed adverse effect level (LOAEL) ([13]; in vivo): 100 mg/kg body weight per day
Cmax ([1]; test set): 0.02 µM
ZET prediction [3]: TER^d
Viability Prediction [4]: NON
Teratogenicity Potential (μM) Cell Viability ([4]; human, 72 h): 4.1 µM
Rabbit prediction [6]: NON
Humans (known human developmental toxicity) [7]: TER
O/C Ratio Prediction [8]: NON
Targeted Biomarker Assay prediction [8]: NON
Teratogenicity Potential (μM) O/C Ratio ([8]; human, 72 h): 1.3 µM
Rodent prediction [9]: TER
mEST prediction [10]: TER^m
Preclinical in vivo and known human developmental effects ([11]; test set compounds): Skeletal, embryo toxicity^c
